Toxic doses and inconclusive results are not listed.

The subject of the assay is L1210 leukemia ip in BDF1 mice, survival T/C. As to the kind of experiment: NCI In Vivo Anticancer Drug Screen. Data for tumor model L1210 Leukemia (intraperitoneal) in B6D2F1 (BDF1) mice. The note with it: endpoint: mean survival time, higher = longer survival. In outline: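 Transplantable tumor model; survival measured in treated vs vehicle control mice. Value = treated/control.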

Setting [1] is: dose: 200.0 mg/kg/injection, schedule: Q04DX003 (ip), vehicle: Klucel (hydroxypropylcellulose) (HPC).
[2] abbreviates: dose: 400.0 mg/kg/injection, schedule: Q04DX003 (ip), vehicle: Klucel (hydroxypropylcellulose) (HPC).
The mark [3] stands for this setting: dose: 100.0 mg/kg/injection, schedule: Q01DX009 (ip), vehicle: saline.
[4] abbreviates: dose: 100.0 mg/kg/injection, schedule: Q01DX001 (ip), vehicle: Klucel (hydroxypropylcellulose) (HPC).
Setting [5] is: dose: 200.0 mg/kg/injection, schedule: Q01DX001 (ip), vehicle: Klucel (hydroxypropylcellulose) (HPC).
[6] abbreviates: dose: 400.0 mg/kg/injection, schedule: Q01DX001 (ip), vehicle: Klucel (hydroxypropylcellulose) (HPC).
Where [7] appears, read: dose: 100.0 mg/kg/injection, schedule: Q04DX003 (ip), vehicle: saline.
Where [8] appears, read: dose: 100.0 mg/kg/injection, schedule: Q01DX009 (ip), vehicle: Klucel (hydroxypropylcellulose) (HPC).
Where [9] appears, read: dose: 100.0 mg/kg/injection, schedule: Q04DX003 (ip), vehicle: Klucel (hydroxypropylcellulose) (HPC).
[10] abbreviates: dose: 200.0 mg/kg/injection, schedule: Q01DX009 (ip), vehicle: Klucel (hydroxypropylcellulose) (HPC).
Setting [11] is: dose: 25.0 mg/kg/injection, schedule: Q01DX009 (ip), vehicle: saline.
Where [12] appears, read: dose: 100.0 mg/kg/injection, schedule: Q04DX002 (ip), vehicle: saline.
[13] abbreviates: dose: 200.0 mg/kg/injection, schedule: Q04DX002 (ip), vehicle: saline.
The mark [14] stands for this setting: dose: 400.0 mg/kg/injection, schedule: Q04DX002 (ip), vehicle: saline.

With `OC(c1ccccc1)C(c1ccccc1)N1CC1` (centres undefined), the T/C by setting is: (dose: 75.0 mg/kg/injection, schedule: Q01DX001 (ip), vehicle: carboxymethylcellulose (CMC)) 93 % of control; (dose: 150.0 mg/kg/injection, schedule: Q01DX001 (ip), vehicle: carboxymethylcellulose (CMC)) 92 % of control; (dose: 300.0 mg/kg/injection, schedule: Q01DX001 (ip), vehicle: carboxymethylcellulose (CMC)) 92 % of control.
On to `Cc1ccc2c(c1)CN(Cc1ccccc1)CO2`, for which the T/C runs as follows: (dose: 75.0 mg/kg/injection, schedule: Q01DX009 (ip), vehicle: saline) 89 % of control; (dose: 150.0 mg/kg/injection, schedule: Q01DX009 (ip), vehicle: saline) 94 % of control; under setting [1], 103 % of control; (dose: 300.0 mg/kg/injection, schedule: Q01DX009 (ip), vehicle: saline) 102 % of control; under setting [2], 97 % of control.
In the case of `COc1ccc(C(Nc2ccc([N+](=O)[O-])cc2)P(=O)(c2ccccc2)c2ccccc2)cc1` (centres undefined), the T/C was 102 % of control under setting [3]; 95 % of control (dose: 200.0 mg/kg/injection, schedule: Q01DX009 (ip), vehicle: saline); 106 % of control (dose: 400.0 mg/kg/injection, schedule: Q01DX009 (ip), vehicle: saline).
For the compound `N#C/C(=C\c1cccc([N+](=O)[O-])c1)c1ccccc1`, the T/C is 97 % of control under setting [4], 101 % of control under setting [5] and 94 % of control under setting [6].
As for `N#Cc1nc(C#N)c(C#N)nc1C#N`, the T/C (dose: 6.25 mg/kg/injection, schedule: Q01DX009 (ip), vehicle: Klucel (hydroxypropylcellulose) (HPC)) is 105 % of control; the T/C (dose: 12.5 mg/kg/injection, schedule: Q01DX009 (ip), vehicle: Klucel (hydroxypropylcellulose) (HPC)) is 100 % of control; the T/C (dose: 25.0 mg/kg/injection, schedule: Q01DX009 (ip), vehicle: Klucel (hydroxypropylcellulose) (HPC)) is 94 % of control; the T/C (dose: 50.0 mg/kg/injection, schedule: Q01DX009 (ip), vehicle: Klucel (hydroxypropylcellulose) (HPC)) was 97 % of control.
As to `NC(N)=Nc1ccc(C(=O)O)cc1`, the T/C is, setting by setting: (dose: 100.0 mg/kg/injection, schedule: Q01DX009 (ip), vehicle: saline with Tween-80) 107 % of control; (dose: 200.0 mg/kg/injection, schedule: Q01DX009 (ip), vehicle: saline with Tween-80) 103 % of control.
For the compound `OCC1OC(OC2CCCCC2)C(O)C(O)C1O` (centres undefined), the T/C under setting [7] is 100 % of control; the T/C (dose: 200.0 mg/kg/injection, schedule: Q04DX003 (ip), vehicle: saline) is 96 % of control; the T/C (dose: 400.0 mg/kg/injection, schedule: Q04DX003 (ip), vehicle: saline) is 102 % of control.
As to `O=C(O)c1c(F)c(F)c(Oc2c(F)c(F)c(F)c(Oc3c(F)c(F)c(C(=O)O)c(F)c3F)c2F)c(F)c1F`, the T/C reads like this: under setting [8], 107 % of control; under setting [9], 100 % of control; under setting [10], 98 % of control; under setting [1], 97 % of control.
In the case of `CN(C)N=Nc1nn(C2CCCO2)cc1C(N)=O` (centres undefined), where the note is “dose: 100.0 mg/kg/injection, schedule: Q01DX005 (ip), vehicle: saline”, the T/C was 150 % of control.
Regarding `Cc1ccc(S(=O)(=O)OCCOCCOS(=O)(=O)c2ccc(C)cc2)cc1`, the T/C is 100 % of control (dose: 100.0 mg/kg/injection, schedule: Q04DX003 (ip), vehicle: saline with Tween-80); 104 % of control (dose: 200.0 mg/kg/injection, schedule: Q04DX003 (ip), vehicle: saline with Tween-80); 100 % of control (dose: 400.0 mg/kg/injection, schedule: Q04DX003 (ip), vehicle: saline with Tween-80).
In the case of `Cc1ncc(CO)c(Nc2ccccc2)n1`, the T/C is 90 % of control under setting [4], 108 % of control under setting [5] and 96 % of control under setting [6].
With `O=C(CO)NCO`, the T/C is 103 % of control (dose: 100.0 mg/kg/injection, schedule: Q01DX001 (ip), vehicle: saline); 101 % of control (dose: 200.0 mg/kg/injection, schedule: Q01DX001 (ip), vehicle: saline); 101 % of control (dose: 400.0 mg/kg/injection, schedule: Q01DX001 (ip), vehicle: saline).
`CCCSP(C(C)C)C(C)C`: the T/C runs as follows: (dose: 12.5 mg/kg/injection, schedule: Q04DX003 (ip), vehicle: saline with Tween-80) 94 % of control; (dose: 25.0 mg/kg/injection, schedule: Q04DX003 (ip), vehicle: saline with Tween-80) 94 % of control; (dose: 50.0 mg/kg/injection, schedule: Q04DX003 (ip), vehicle: saline with Tween-80) 91 % of control.
On to `OCC#CC#CCO`, for which the T/C is 95 % of control under setting [11]; 115 % of control (dose: 50.0 mg/kg/injection, schedule: Q01DX009 (ip), vehicle: saline); 105 % of control under setting [3]; 103 % of control under setting [7].
As for `S=C(Nc1ccccc1)Nc1ccccc1S`, the T/C by setting is: under setting [8], 97 % of control; under setting [9], 98 % of control; under setting [10], 92 % of control; under setting [1], 95 % of control; (dose: 400.0 mg/kg/injection, schedule: Q01DX009 (ip), vehicle: Klucel (hydroxypropylcellulose) (HPC)) 92 % of control; under setting [2], 95 % of control.
As to `CC(=O)/C=C/c1ccco1`, the T/C runs as follows: (dose: 12.5 mg/kg/injection, schedule: Q01DX009 (ip), vehicle: DMSO) 101 % of control; (dose: 25.0 mg/kg/injection, schedule: Q01DX009 (ip), vehicle: DMSO) 97 % of control; (dose: 25.0 mg/kg/injection, schedule: Q04DX003 (ip), vehicle: DMSO) 96 % of control; (dose: 50.0 mg/kg/injection, schedule: Q01DX009 (ip), vehicle: DMSO) 92 % of control; (dose: 50.0 mg/kg/injection, schedule: Q04DX003 (ip), vehicle: DMSO) 108 % of control; (dose: 100.0 mg/kg/injection, schedule: Q04DX003 (ip), vehicle: DMSO) 98 % of control.
With `CCCCCCCCCCCCCCCCCCNC(=O)Nc1ccc(C)cc1`, the T/C by setting is: (dose: 100.0 mg/kg/injection, schedule: Q01DX009 (sc), vehicle: olive oil, sesame oil, peanut oil) 112 % of control; (dose: 100.0 mg/kg/injection, schedule: Q04DX003 (sc), vehicle: olive oil, sesame oil, peanut oil) 114 % of control; (dose: 200.0 mg/kg/injection, schedule: Q01DX009 (sc), vehicle: olive oil, sesame oil, peanut oil) 106 % of control; (dose: 200.0 mg/kg/injection, schedule: Q04DX003 (sc), vehicle: olive oil, sesame oil, peanut oil) 104 % of control; (dose: 400.0 mg/kg/injection, schedule: Q01DX009 (sc), vehicle: olive oil, sesame oil, peanut oil) 106 % of control; (dose: 400.0 mg/kg/injection, schedule: Q04DX003 (sc), vehicle: olive oil, sesame oil, peanut oil) 98 % of control.
For `C=COCCCCCC`, the T/C under setting [12] is 103 % of control, the T/C under setting [13] was 100 % of control and the T/C under setting [14] was 90 % of control.
For the compound `Cc1cc2cc3n(c2nn1)N=CCC3`, the T/C by setting is: under setting [12], 106 % of control; under setting [13], 103 % of control.
As to `CCN(C)C(=O)Nc1ccc(N)cc1`, the T/C runs as follows: under setting [12], 101 % of control; under setting [13], 104 % of control; under setting [14], 108 % of control.
In the case of `CN1CCCCC1CCN1c2ccccc2Sc2ccc(Cl)cc21` (centres undefined), the T/C (dose: 3.12 mg/kg/injection, schedule: Q01DX009 (ip), vehicle: saline) was 96 % of control; the T/C (dose: 6.25 mg/kg/injection, schedule: Q01DX009 (ip), vehicle: saline) is 97 % of control; the T/C (dose: 12.5 mg/kg/injection, schedule: Q01DX009 (ip), vehicle: saline) is 100 % of control; the T/C under setting [11] was 97 % of control.

The record behind these values is PubChem BioAssay AID248 (DTP/NCI, 2004).
